Measured values taken from patent US6358885B1, “Substituted phenylheterocyclic herbicides” (Mississippi State University, priority 1992, dated 2002).

Tests used:
Japonica rice [1] = assay: Test D paddy water application plant response rating 0 to 100; assay type: in vivo, Oryza sativa; conditions: 0 to 100 scale, approx. 21 days
Excerpt: (§1) Plastic pots were partially filled with silt loam soil. The soil was then saturated with water. […] After planting, water levels were raised to 3 cm above the soil surface and maintained at this level throughout the test. Chemical treatments were formulated in a non-phytotoxic solvent and applied directly to the paddy water. Treated plants and controls were maintained in a greenhouse for approximately 21 days, after which all species were compared to controls and visually evaluated. […] A dash (-) response means no test result.

barnyardgrass [2] = assay: as above; assay type: in vivo, Echinochloa crus-galli; conditions: 0 to 100 scale, approx. 21 days
Excerpt: as §1

duck salad = assay: as above; assay type: in vivo, Heteranthera limosa; conditions: 0 to 100 scale, approx. 21 days
Excerpt: as §1

umbrella sedge = assay: as above; assay type: in vivo, Cyperus difformis; conditions: 0 to 100 scale, approx. 21 days
Excerpt: as §1

arrowhead = assay: as above; assay type: in vivo, Sagittaria spp.; conditions: 0 to 100 scale, approx. 21 days
Excerpt: as §1

waterchestnut = assay: as above; assay type: in vivo, Eleocharis spp.; conditions: 0 to 100 scale, approx. 21 days
Excerpt: as §1

Japonica rice [3] = assay: Test E paddy water application plant response rating 0 to 100; assay type: in vivo, oryza sativa; conditions: Flood, 0 to 100 scale, approx. 21 days
Excerpt: (§2) Plastic pots were partially filled with silt loam soil. […] At testing, the water level for all plantings was raised to 2 cm above the soil surface. Chemical treatments were formulated in a non-phytotoxic solvent and applied directly to the paddy water. Treated plants and controls were maintained in a greenhouse for approximately 21 days, after which all species were compared to controls and visually evaluated. […] A dash (-) response means no test result.

barnyardgrass [4] = assay: as above; assay type: in vivo, Echinochloa crus-galli; conditions: Flood, 0 to 100 scale, approx. 21 days
Excerpt: as §2

COCN1C(=O)COc2cc(F)c(-c3nn4c(c3Cl)CCCC4)cc21 [Compound 55]
Japonica rice plant response rating (Japonica rice [1]; Rate 4 g/ha): 10 | Japonica rice plant response rating (Japonica rice [1]; Rate 8 g/ha): 10 | Japonica rice plant response rating (Japonica rice [1]; Rate 16 g/ha): 20 | Japonica rice plant response rating (Japonica rice [1]; Rate 32 g/ha): 25 | Japonica rice plant response rating (Japonica rice [1]; Rate 64 g/ha): 25 | Barnyardgrass 2 plant response rating (barnyardgrass [2]; Rate 4 g/ha): 0 | Barnyardgrass 2 plant response rating (barnyardgrass [2]; Rate 8 g/ha): 0 | Barnyardgrass 2 plant response rating (barnyardgrass [2]; Rate 16 g/ha): 10 | Barnyardgrass 2 plant response rating (barnyardgrass [2]; Rate 32 g/ha): 40 | Barnyardgrass 2 plant response rating (barnyardgrass [2]; Rate 64 g/ha): 100 | Duck salad plant response rating (duck salad; Rate 4 g/ha): 0 | Duck salad plant response rating (duck salad; Rate 8 g/ha): 0 | Duck salad plant response rating (duck salad; Rate 16 g/ha): 0 | Duck salad plant response rating (duck salad; Rate 32 g/ha): 0 | Duck salad plant response rating (duck salad; Rate 64 g/ha): 10 | Umbrella sedge plant response rating (umbrella sedge; Rate 4 g/ha): 0 | Umbrella sedge plant response rating (umbrella sedge; Rate 8 g/ha): 0 | Umbrella sedge plant response rating (umbrella sedge; Rate 16 g/ha): 20 | Umbrella sedge plant response rating (umbrella sedge; Rate 32 g/ha): 80 | Umbrella sedge plant response rating (umbrella sedge; Rate 64 g/ha): 80 | Arrowhead plant response rating (arrowhead; Rate 4 g/ha): 0 | Arrowhead plant response rating (arrowhead; Rate 8 g/ha): 0 | Arrowhead plant response rating (arrowhead; Rate 16 g/ha): 20 | Arrowhead plant response rating (arrowhead; Rate 32 g/ha): 20 | Arrowhead plant response rating (arrowhead; Rate 64 g/ha): 30 | Waterchestnut plant response rating (waterchestnut; Rate 4 g/ha): 0 | Waterchestnut plant response rating (waterchestnut; Rate 8 g/ha): 0 | Waterchestnut plant response rating (waterchestnut; Rate 16 g/ha): 10 | Waterchestnut plant response rating (waterchestnut; Rate 32 g/ha): 15 | Waterchestnut plant response rating (waterchestnut; Rate 64 g/ha): 20 | Japonica 1 plant response rating (Japonica rice [3]; Rate 8 g/ha): 25 | Japonica 2 plant response rating (Japonica rice [3]; Rate 8 g/ha): 15 | Japonica 1 plant response rating (Japonica rice [3]; Rate 16 g/ha): 75 | Japonica 2 plant response rating (Japonica rice [3]; Rate 16 g/ha): 20 | Japonica 1 plant response rating (Japonica rice [3]; Rate 32 g/ha): 85 | Japonica 2 plant response rating (Japonica rice [3]; Rate 32 g/ha): 25 | Japonica 1 plant response rating (Japonica rice [3]; Rate 64 g/ha): 98 | Japonica 2 plant response rating (Japonica rice [3]; Rate 64 g/ha): 35 | Barnyardgrass 2 plant response rating (barnyardgrass [4]; Rate 8 g/ha): 15 | Barnyardgrass 3 plant response rating (barnyardgrass [4]; Rate 8 g/ha): 20 | Barnyardgrass 2 plant response rating (barnyardgrass [4]; Rate 16 g/ha): 70 | Barnyardgrass 3 plant response rating (barnyardgrass [4]; Rate 16 g/ha): 40 | Barnyardgrass 2 plant response rating (barnyardgrass [4]; Rate 32 g/ha): 80 | Barnyardgrass 3 plant response rating (barnyardgrass [4]; Rate 32 g/ha): 50 | Barnyardgrass 2 plant response rating (barnyardgrass [4]; Rate 64 g/ha): 100 | Barnyardgrass 3 plant response rating (barnyardgrass [4]; Rate 64 g/ha): 75
